One data set relates to Acholeplasma laidlawii. Description: Antimicrobial activity against Acholeplasma laidlawii PG-8A after 2 hrs. The class given is functional. The conditions noted are these: for MIC: Acholeplasma laidlawii, PG-8A, 2 h.
Data set [1] has as its system Mycoplasma mycoides subsp. mycoides SC. Description: Antimicrobial activity against Mycoplasma mycoides subsp. mycoides SC KH3J after 2 hrs. The data set is classed as functional.
The subject of another data set is Spiroplasma floricola. Put plainly: Antimicrobial activity against Spiroplasma floricola BNR1 after 2 hrs. The class given is functional. The conditions noted are these: for MIC: Spiroplasma floricola, BNR1, 2 h.
Data set [2] concerns Mycoplasmoides gallisepticum. Description: Antimicrobial activity against Mycoplasma gallisepticum S6 after 2 hrs. The class given is functional. The conditions noted are these: for MIC: Mycoplasmoides gallisepticum, S6, 2 h.
The nature of data set [3]: Bilayer membrane permeabilization assessed as lipid to peptide ratio allowing 50% leakage of entrapped carboxyfluorescein from egg phosphatidylcholine-cholesterol liposomes at 1.1 uM at 20 mins by spectrofluorimetry. The data set is classed as physicochemical.
Another data set deals with Spiroplasma citri. Put plainly: Antimicrobial activity against Spiroplasma citri R8A2 after 2 hrs. The class given is functional. Conditions: R8A2, 2 h.
Another data set has as its system Spiroplasma apis. Description: Antimicrobial activity against Spiroplasma apis B31 after 2 hrs. The data set is classed as functional. The conditions noted are these: for MIC: Spiroplasma apis, B31, 2 h.
Data set [4] is described as follows: Bilayer membrane permeabilization assessed as lipid to peptide ratio allowing 50% leakage of entrapped carboxyfluorescein from egg phosphatidylcholine-cholesterol liposomes at 0.21 uM at 20 mins by spectrofluorimetry. The data set is classed as physicochemical.
Data set [5] can be described thus: Bilayer membrane permeabilization assessed as lipid to peptide ratio allowing 50% leakage of entrapped carboxyfluorescein from egg phosphatidylcholine-cholesterol liposomes at 0.36 uM at 20 mins by spectrofluorimetry. The data set is classed as physicochemical.
The nature of data set [6]: Bilayer membrane permeabilization assessed as lipid to peptide ratio allowing 50% leakage of entrapped carboxyfluorescein from egg phosphatidylcholine-cholesterol liposomes at 0.18 uM at 20 mins by spectrofluorimetry. The data set is classed as physicochemical.
Data set [7] can be described thus: Bilayer membrane permeabilization assessed as lipid to peptide ratio allowing 50% leakage of entrapped carboxyfluorescein from egg phosphatidylcholine-cholesterol liposomes at 0.45 uM at 20 mins by spectrofluorimetry. The data set is classed as physicochemical.
Data set [8] can be described thus: Bilayer membrane permeabilization assessed as lipid to peptide ratio allowing 50% leakage of entrapped carboxyfluorescein from egg phosphatidylcholine-cholesterol liposomes at 0.98 uM at 20 mins by spectrofluorimetry. The data set is classed as physicochemical.

Values after ≈ are worked out from the molar mass of the structure shown. Square brackets hold non-standard residues; d marks the D form. Peptide text beside a SMILES is read from it. * marks the point of attachment. X2 = OC[C@H](Cc1c[nH]c2ccccc12)N*; Phe(ol) = N[C@H](CO)Cc1ccccc1; X1 = COC[C@H](Cc1ccccc1)N*; Aib = CC(C)(N)C(=O)O

As a reminder, the MIC is the least concentration at which growth counts as inhibited. High values mean weaker potency, low ones greater potency. Regarding `CC[C@@](C)(NC(=O)C(C)(C)NC(=O)[C@@H](NC(=O)[C@@H]1CCCN1C(=O)C(C)(C)NC(=O)[C@H](CC(C)C)NC(=O)CNC(=O)C(C)(C)NC(=O)[C@@H](NC(=O)C(C)(C)NC(=O)[C@H](CCC(N)=O)NC(=O)[C@H](C)NC(=O)C(C)(C)NC(=O)[C@H](C)NC(=O)C(C)(C)NC(=O)[C@H](C)NC(=O)C(C)(C)NC(C)=O)C(C)C)C(C)C)C(=O)N[C@@H](CCC(=O)O)C(=O)N[C@@H](CCC(N)=O)C(=O)N[C@H](CO)Cc1ccccc1`, the MLC (in the data set on Acholeplasma laidlawii; in the data set with Spiroplasma floricola; in data set [2]; in the data set on Spiroplasma apis) was 3.12 µM (≈ 6.09 µg/mL) throughout. In addition, the MIC in the data set with Acholeplasma laidlawii worked out at 1.56 µM (≈ 3.05 µg/mL); in [1], 6.25 µM (≈ 12.2 µg/mL); with Spiroplasma floricola it was 12.5 µM (≈ 24.4 µg/mL); in data set [2] it was 6.25 µM (≈ 12.2 µg/mL); in the data set on Spiroplasma citri, 6.25 µM (≈ 12.2 µg/mL); against Spiroplasma apis it was 12.5 µM (≈ 24.4 µg/mL). Further, in data set [3], the Ratio came out at 540.

Take `CC[C@@](C)(NC(=O)C(C)(C)NC(=O)[C@@H](NC(=O)[C@@H]1CCCN1C(=O)C(C)(C)NC(=O)[C@H](CC(C)C)NC(=O)CNC(=O)C(C)(C)NC(=O)[C@@H](NC(=O)C(C)(C)NC(=O)[C@H](CCC(N)=O)NC(=O)[C@H](C)NC(=O)C(C)(C)NC(=O)[C@H](C)NC(=O)C(C)(C)NC(=O)[C@H](C)NC(=O)C(C)(C)NC(C)=O)C(C)C)C(C)C)C(=O)N[C@@H](CCC(N)=O)C(=O)N[C@@H](CCC(N)=O)C(=O)N[C@@H](CO)Cc1ccccc1`: in [4], the Ratio came to 2860.

Consider `CC[C@@](C)(NC(=O)C(C)(C)NC(=O)[C@H](C)NC(=O)[C@H](CO)NC(=O)C(C)(C)NC(C)=O)C(=O)N[C@@H](CCC(N)=O)C(=O)NC(C)(C)C(=O)N[C@H](C(=O)NC(C)(C)C(=O)NCC(=O)N[C@@H](CC(C)C)C(=O)NC(C)(C)C(=O)N1CCC[C@H]1C(=O)N[C@@H](CC(C)C)C(=O)NC(C)(C)C(=O)NC(C)(C)C(=O)N[C@@H](CCC(N)=O)C(=O)N[C@H](CO)Cc1ccccc1)C(C)C`, for which the MIC in the data set on Acholeplasma laidlawii was 3.12 µM (≈ 5.56 µg/mL); in data set [1], 12.5 µM (≈ 22.3 µg/mL); against Spiroplasma floricola, 25 µM (≈ 44.6 µg/mL); in data set [2], 6.25 µM (≈ 11.1 µg/mL); with Spiroplasma citri, 12.5 µM (≈ 22.3 µg/mL); in the data set with Spiroplasma apis it was 12.5 µM (≈ 22.3 µg/mL).

Turning to `CC[C@@](C)(NC(=O)C(C)(C)NC(=O)[C@@H](NC(=O)[C@@H]1CCCN1C(=O)C(C)(C)NC(=O)[C@H](CC(C)C)NC(=O)CNC(=O)C(C)(C)NC(=O)[C@@H](NC(=O)C(C)(C)NC(=O)[C@H](CCC(N)=O)NC(=O)[C@H](C)NC(=O)C(C)(C)NC(=O)[C@H](C)NC(=O)C(C)(C)NC(=O)[C@H](C)NC(=O)C(C)(C)NC(C)=O)C(C)C)C(C)C)C(=O)N[C@@H](CCC(=O)O)C(=O)N[C@@H](CCC(N)=O)C(=O)N[C@H](COC)Cc1ccccc1`, in data set [5], the Ratio was determined as 2500.

Consider `CC[C@H](C)[C@H](NC(=O)C(C)(C)NC(=O)[C@@H](NC(=O)[C@@H]1CCCN1C(=O)C(C)(C)NC(=O)[C@H](CC(C)C)NC(=O)[C@H](CO)NC(=O)C(C)(C)NC(=O)C(C)(C)NC(=O)C(C)(C)NC(=O)[C@H](CCC(N)=O)NC(=O)C(C)(C)NC(=O)C(C)(C)NC(=O)[C@H](C)NC(=O)[C@H](C)NC(=O)C(C)(C)NC(C)=O)C(C)C)C(=O)N[C@@H](CCC(N)=O)C(=O)N[C@@H](CCC(N)=O)C(=O)N[C@H](CO)Cc1c[nH]c2ccccc12` (Ac-[Aib]AA[Aib][Aib]Q[Aib][Aib][Aib]SL[Aib]PV[Aib]IQQ-X2), for which the Ratio in data set [6] was determined as 2220.

Regarding `COC[C@H](Cc1ccccc1)NC(=O)[C@H](CCC(N)=O)NC(=O)[C@H](CCC(=O)O)NC(=O)C(C)(C)NC(=O)C(C)(C)NC(=O)[C@@H](NC(=O)[C@@H]1CCCN1C(=O)C(C)(C)NC(=O)[C@H](CC(C)C)NC(=O)CNC(=O)C(C)(C)NC(=O)[C@@H](NC(=O)C(C)(C)NC(=O)[C@H](CCC(N)=O)NC(=O)[C@H](C)NC(=O)C(C)(C)NC(=O)[C@H](C)NC(=O)C(C)(C)NC(=O)[C@H](C)NC(=O)C(C)(C)NC(C)=O)C(C)C)C(C)C` (Ac-[Aib]A[Aib]A[Aib]AQ[Aib]V[Aib]GL[Aib]PV[Aib][Aib]EQ-X1), the Ratio in data set [7] was determined as 1335.

Regarding `CC(=O)NC(C)(C)C(=O)N[C@@H](C)C(=O)NC(C)(C)C(=O)N[C@@H](C)C(=O)NC(C)(C)C(=O)N[C@@H](C)C(=O)N[C@@H](CCC(N)=O)C(=O)NC(C)(C)C(=O)N[C@H](C(=O)NC(C)(C)C(=O)NCC(=O)N[C@@H](CC(C)C)C(=O)NC(C)(C)C(=O)N1CCC[C@H]1C(=O)N[C@H](C(=O)NC(C)(C)C(=O)NC(C)(C)C(=O)N[C@@H](CCC(=O)O)C(=O)N[C@@H](CCC(N)=O)C(=O)N[C@H](CO)Cc1ccccc1)C(C)C)C(C)C` (Ac-[Aib]A[Aib]A[Aib]AQ[Aib]V[Aib]GL[Aib]PV[Aib][Aib]EQ[Phe(ol)]), the MLC (with Acholeplasma laidlawii; with Spiroplasma floricola; in [2]; in the data set on Spiroplasma apis) was 3.12 µM (≈ 6.05 µg/mL) each time. Also, the MIC in the data set with Acholeplasma laidlawii came out at 1.56 µM (≈ 3.02 µg/mL); in [1], 12.5 µM (≈ 24.2 µg/mL); with Spiroplasma floricola, 12.5 µM (≈ 24.2 µg/mL); in data set [2], 6.25 µM (≈ 12.1 µg/mL); in the data set with Spiroplasma citri it was 6.25 µM (≈ 12.1 µg/mL); with Spiroplasma apis, 12.5 µM (≈ 24.2 µg/mL).

Regarding `CC(=O)NC(C)(C)C(=O)N[C@@H](C)C(=O)NC(C)(C)C(=O)N[C@@H](C)C(=O)NC(C)(C)C(=O)N[C@@H](C)C(=O)N[C@@H](CCC(N)=O)C(=O)NC(C)(C)C(=O)N[C@H](C(=O)NC(C)(C)C(=O)NCC(=O)N[C@@H](CC(C)C)C(=O)NC(C)(C)C(=O)N1CCC[C@H]1C(=O)N[C@H](C(=O)NC(C)(C)C(=O)NC(C)(C)C(=O)N[C@@H](CCC(N)=O)C(=O)N[C@@H](CCC(N)=O)C(=O)N[C@H](CO)Cc1ccccc1)C(C)C)C(C)C` (Ac-[Aib]A[Aib]A[Aib]AQ[Aib]V[Aib]GL[Aib]PV[Aib][Aib]QQ[Phe(ol)]), the Ratio in [5] was determined as 1667.

As to `CC(=O)NC(C)(C)C(=O)N[C@@H](C)C(=O)NC(C)(C)C(=O)N[C@@H](C)C(=O)NC(C)(C)C(=O)NC(C)(C)C(=O)N[C@@H](CCC(N)=O)C(=O)NC(C)(C)C(=O)N[C@H](C(=O)NC(C)(C)C(=O)NCC(=O)N[C@@H](CC(C)C)C(=O)NC(C)(C)C(=O)N1CCC[C@H]1C(=O)N[C@H](C(=O)NC(C)(C)C(=O)NC(C)(C)C(=O)N[C@@H](CCC(N)=O)C(=O)N[C@@H](CCC(N)=O)C(=O)N[C@H](CO)Cc1ccccc1)C(C)C)C(C)C` (Ac-[Aib]A[Aib]A[Aib][Aib]Q[Aib]V[Aib]GL[Aib]PV[Aib][Aib]QQ[Phe(ol)]), the Ratio in [8] is recorded as 1820.

Turning to `CC(=O)NC(C)(C)C(=O)N1CCC[C@H]1C(=O)NC(C)(C)C(=O)N[C@@H](C)C(=O)NC(C)(C)C(=O)N[C@@H](C)C(=O)N[C@@H](CCC(N)=O)C(=O)NC(C)(C)C(=O)N[C@H](C(=O)NC(C)(C)C(=O)NCC(=O)N[C@@H](CC(C)C)C(=O)NC(C)(C)C(=O)N1CCC[C@H]1C(=O)N[C@H](C(=O)NC(C)(C)C(=O)NC(C)(C)C(=O)N[C@@H](CCC(N)=O)C(=O)N[C@@H](CCC(N)=O)C(=O)N[C@H](CO)Cc1ccccc1)C(C)C)C(C)C` [ALAMETHICIN F50] (Ac-[Aib]P[Aib]A[Aib]AQ[Aib]V[Aib]GL[Aib]PV[Aib][Aib]QQ[Phe(ol)]), the MIC with Acholeplasma laidlawii amounted to 1.56 µM (≈ 3.06 µg/mL); in data set [1], 12.5 µM (≈ 24.5 µg/mL); with Spiroplasma floricola it was 6.25 µM (≈ 12.3 µg/mL); in data set [2] it was 6.25 µM (≈ 12.3 µg/mL); with Spiroplasma citri it was 3.12 µM (≈ 6.13 µg/mL); in the data set on Spiroplasma apis, 6.25 µM (≈ 12.3 µg/mL).

Values taken from ChEMBL document CHEMBL1155703, “Sequences and antimycoplasmic properties of longibrachins LGB II and LGB III, two novel 20-residue peptaibols from Trichoderma longibrachiatum” (J Nat Prod, 2001).
